# Experimental data from patent US20260265409A1, “ANTIBODY FUSION PROTEIN TARGETING FAP AND TGFbeta, AND USE THEREOF” (NANJING LEADS BIOLABS CO., LTD., priority 2022, published 2026).
# How the values were obtained:
# [1] = system: renal interstitium fibrosis model induced by left ureter ligation; assay: UUO renal interstitium fibrosis model in mice; type: in vivo, C57BL/6J mice; details: 20 mg/kg and 3 mg/kg intraperitoneal every other day, day 10; FIG. 9, FIG. 10
# Protocol: In this animal pharmacodynamic study, a renal interstitium fibrosis model was induced by left ureter ligation in mice supplied by KCl BioTech. The efficacy of the surrogate antibody fusion protein 28H1-Trap on renal fibrosis was evaluated in this model. C57BL/6J mice (Shanghai Jihui Laboratory Animal Care Co., Ltd.) aged 8-9 weeks were randomized by weight. On the day of modeling (day 0), the mice in groups 2-4 were anesthetized with isoflurane. The abdominal cavity was opened along the ventral midline, and the left ureter of the animal was ligated. The abdomen was closed and the skin was sutured. The treatment was given intraperitoneally on the day of modeling. The animals in group 1 were anesthetized with isoflurane. The abdominal cavity was opened along the ventral midline and closed immediately, and the skin was sutured. In the next 10 days, the treatments were given intraperitoneally once every other day, and the body weight was measured once every two days. The specific treatments and dosages are shown in the following table: The animals were given an I.P. injection of the test substance on days 0, 2, 4, 6, and 8, and the animals were given the analgesic meloxicam subcutaneously on days 1-3. The body weight was recorded daily. The kidney on the UUO side were scored for fibrosis by Masson staining. […] The degree of fibrosis of the kidney was evaluated (see FIG. 10).
# [2] = system: bilateral idiopathic pulmonary fibrosis model; assay: Bleomycin-induced idiopathic pulmonary fibrosis (IPF) model in mice; type: in vivo, C57BL/6 mice
# Protocol: In this animal pharmacodynamic study, a bilateral idiopathic pulmonary fibrosis model was induced using bleomycin instillation into the trachea of mice supplied by KCl BioTech. The efficacy of the surrogate antibody fusion protein 28H1-Trap on pulmonary fibrosis was evaluated in this model. C57BL/6 mice (Cavens Biogle (Suzhou) Co., Ltd.) aged 8-9 weeks were treated from the day of modeling and the induced pulmonary fibrosis model was established by tracheal instillation of bleomycin after the treatment. In the next three weeks, intraperitoneal doses were given twice weekly, and the body weight was measured once every two days. The specific treatments and dosages are shown in the following table: Mice were euthanized at the end of study. At the end of study, both lungs were collected from 15 surviving animals in each group (6 in the normal group) and fixed by formalin perfusion. Histological sections were made, stained with Masson, imaged (FIGS. 7A-H), and graded by pulmonary fibrosis scores. Pathological staining results are shown in FIG. 7, where black arrows indicate intact alveolar structures and the dark interstitial parts indicate collagen accumulation.
# [3] = target: T1, human FAP protein expressed on 293T cells (Homo sapiens, UniProt Q12884); assay: Cell binding assay by flow cytometry, 293T-human FAP cells
# T1 construct: expressed in transfected cells; host or cells: 293T cells, PIRES-puro3 vector, puromycin selection
# T1 sequence (Q12884 1-760): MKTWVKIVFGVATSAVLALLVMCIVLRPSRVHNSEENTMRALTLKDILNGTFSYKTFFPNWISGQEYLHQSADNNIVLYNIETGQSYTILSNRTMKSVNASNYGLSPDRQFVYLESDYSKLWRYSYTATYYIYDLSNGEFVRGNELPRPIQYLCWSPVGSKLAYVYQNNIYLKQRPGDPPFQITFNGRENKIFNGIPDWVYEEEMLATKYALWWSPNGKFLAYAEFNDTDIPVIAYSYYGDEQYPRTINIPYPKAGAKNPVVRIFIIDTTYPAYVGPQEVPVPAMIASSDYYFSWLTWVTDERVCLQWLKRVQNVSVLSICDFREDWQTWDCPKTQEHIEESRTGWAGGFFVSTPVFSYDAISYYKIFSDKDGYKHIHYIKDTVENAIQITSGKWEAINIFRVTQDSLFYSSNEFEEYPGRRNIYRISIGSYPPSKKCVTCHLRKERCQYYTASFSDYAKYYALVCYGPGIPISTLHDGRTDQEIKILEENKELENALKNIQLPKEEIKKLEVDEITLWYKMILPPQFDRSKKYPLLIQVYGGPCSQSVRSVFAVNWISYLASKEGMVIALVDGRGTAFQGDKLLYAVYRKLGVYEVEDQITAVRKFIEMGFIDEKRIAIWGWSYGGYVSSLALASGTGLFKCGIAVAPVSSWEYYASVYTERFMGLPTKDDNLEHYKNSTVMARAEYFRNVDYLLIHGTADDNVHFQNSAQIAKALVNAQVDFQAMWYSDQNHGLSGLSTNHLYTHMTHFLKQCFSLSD
# Protocol: Whether the humanized antibody of the present disclosure can bind to human FAP protein stably expressed on the surface of 293T cells was determined by a cell binding assay. Firstly, the sequences encoding human FAP protein (NM_004460.2, SEQ ID NO: 31) and cynomolgus FAP (XM_005573320.2, SEQ ID NO: 32) were cloned into expression vector PIRES-puro3 (Clontech, Cat #631619) […]. The vectors were used to transfect 293T cells. […]
# The human FAP antibodies (huF19-LG and sibrotuzumab) were 4-fold serially diluted from a starting concentration of 200 nM to a total of 8 concentrations and added to the cells for co-incubation at 4° C. for 30 min. […] The cells were washed twice with PBS and then resuspended, and finally, fluorescence signals were detected using the […] (BD Bioscience) flow cytometer.
# Whether the mutant antibody in the present disclosure can bind to human or cynomolgus FAP protein stably expressed on the surface of 293T cells was determined by a cell binding assay. […] The cells were washed twice with PBS and then resuspended, and finally, fluorescence signals were detected using the […] (BD Bioscience) flow cytometer. […]
substance,measurement,setting,value
"28H1-Trap: pharmacodynamic surrogate fusion protein: anti-FAP antibody 28H1 (WO2012020006) fused to TGFβR2 extracellular domain; heavy chain SEQ ID NO: 29, light chain SEQ ID NO: 28",kidney fibrosis score by Masson staining,[1],significant dose-dependent ameliorative effect on the fibrosis in the renal cortex of the kidney
same,pulmonary fibrosis grading (Ashcroft scoring),"[2]; 20 mg/kg and 3 mg/kg vs modeling group, FIG. 8B",reduced the pulmonary fibrotic lesions in a dose-dependent manner
same,"grade of pulmonary fibrotic lesions (Masson staining, pathological sections)","[2]; 20 mg/kg intraperitoneal twice weekly, 21 days, vs modeling group, FIG. 7",could reduce the grade of pulmonary fibrotic lesions
same,pulmonary fibrosis staining scoring,"[2]; high dose (20 mg/kg) vs modeling group, FIG. 8A",can reduce fibrotic lesions in the lungs at a high dose
same,binding to human FAP protein expressed on engineered 293T cells (FACS),[3],confirmed to bind to human FAP at cellular level
